Test results published in PMC8591201, “Anti-Tumor Activity of AZD4547 Against NTRK1 Fusion Positive Cancer Cells Through Inhibition of NTRKs” (Frontiers in Oncology, 2021).

Columns and labels:
[1] = biological target: T1, TRKA (Homo sapiens, UniProt P04629); experiment: radiometric biochemical kinase assay
T1 construct: gene NTRK1

[2] = tested on: NCI-H417; experiment: cells; parameters: Anti-proliferation, 10-point dose response, CellTiter-Glo luminescence (MTT stated for KM12(Luc)), GI50 fitted in Prism; conditions: Homo sapiens, NCI-H417, 72 h, read-out: GI50 (µM) a
[3] = tested on: OVCAR-8; experiment: cells; parameters: Anti-proliferation, 10-point dose response, CellTiter-Glo luminescence (MTT stated for KM12(Luc)), GI50 fitted in Prism; conditions: Homo sapiens, OVCAR-8, 72 h, read-out: GI50 (µM) a
[4] = tested on: RS4-11; experiment: cells; parameters: Anti-proliferation, 10-point dose response, CellTiter-Glo luminescence (MTT stated for KM12(Luc)), GI50 fitted in Prism; conditions: Homo sapiens, RS4-11, 72 h, read-out: GI50 (µM) a
[5] = tested on: SK-MEL-30; experiment: cells; parameters: Anti-proliferation, 10-point dose response, CellTiter-Glo luminescence (MTT stated for KM12(Luc)), GI50 fitted in Prism; conditions: Homo sapiens, SK-MEL-30, 72 h, read-out: GI50 (µM) a
[6] = in vitro; parameters: CellTiter-Glo viability of parental Ba/F3 cells, counter-screen; conditions: mouse, parental ba/f3 cells; read-out: AZD4547 parental
Experimental: To obtain the GI50 value of a substance, cell viability was measured using MTT (G4000, Promega, USA) for KM12(Luc) cell and Cell titer glo (G7572, Promega, USA) for other cell lines. For adherent cells, cells were seeded at 5,000 cells/well in a 96-well plate and treated with a substance one day after cell seeding. For suspension cells, 10,000 cells/well were seeded and the substance was treated after 4 h stabilization of cells. The substance was treated at 10 points of 1:3 serial dilution (0–100 µmol/L) for 72 h. For MTT assay, 15 µL dye solution was added to each well and incubated 4 h at 37°C. 100 µL of solubilization solution was added and followed 1 hr incubation. Absorbance at 570 nm of each well was recorded using EnVision microplate reader (Perkin Elmer). For Cell titer glo assay, Cell titer glo reagent was treated in each well and measured the luminescence by EnVision microplate reader (Perkin Elmer). Viable cells in each well were normalized by using 0.5% DMSO-treated wells (100%). The inhibitor dose−response curve was fitted and GI50 values were calculated using Prism 7.0 software (GraphPad). All assays were performed in duplicate and the standard deviation (SD) was determined from two independent experiments. […] Cell viability after 72 h exposure to the indicated inhibitors, determined by using a cell titer glo assay in duplicate mode. […]

T1 sequence (P04629 33-796): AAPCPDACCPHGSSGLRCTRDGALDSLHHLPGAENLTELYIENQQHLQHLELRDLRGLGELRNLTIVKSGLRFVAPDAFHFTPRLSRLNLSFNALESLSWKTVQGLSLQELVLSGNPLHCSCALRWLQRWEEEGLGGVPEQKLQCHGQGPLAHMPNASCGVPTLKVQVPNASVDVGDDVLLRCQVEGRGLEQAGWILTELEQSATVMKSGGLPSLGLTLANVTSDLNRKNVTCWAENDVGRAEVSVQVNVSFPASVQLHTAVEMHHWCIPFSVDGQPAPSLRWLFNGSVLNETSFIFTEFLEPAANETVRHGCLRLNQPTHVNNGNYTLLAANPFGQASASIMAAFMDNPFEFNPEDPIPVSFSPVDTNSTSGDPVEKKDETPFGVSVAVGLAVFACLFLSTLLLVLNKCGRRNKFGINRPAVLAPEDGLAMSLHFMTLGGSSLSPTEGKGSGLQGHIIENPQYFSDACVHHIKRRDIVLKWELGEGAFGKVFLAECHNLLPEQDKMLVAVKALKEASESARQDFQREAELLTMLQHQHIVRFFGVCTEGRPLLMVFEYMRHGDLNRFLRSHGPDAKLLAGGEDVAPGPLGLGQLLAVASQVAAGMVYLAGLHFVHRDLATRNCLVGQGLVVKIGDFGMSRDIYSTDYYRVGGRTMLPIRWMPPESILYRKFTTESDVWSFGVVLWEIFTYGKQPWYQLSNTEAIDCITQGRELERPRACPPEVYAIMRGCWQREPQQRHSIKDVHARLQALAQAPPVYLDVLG

## COc1cc(CCc2cc(NC(=O)c3ccc(N4C[C@@H](C)N[C@@H](C)C4)cc3)n[nH]2)cc(OC)c1 [AZD4547]
[1]
  IC50: 0.0088 µM
[2]
  GI50: 5.99 µM
[3]
  GI50: 4.97 µM
[4]
  GI50: 3.24 µM
[5]
  GI50: 16.5 µM
[6]
  CC50 at 72 h: > 2 µM
